Measurements reported in US5157019A, “Serine protease inhibitors” (Monsanto Company, priority 1991, dated 1992).
Ends that are not written are not given here.

Test system: complement activation
Experiment: Reverse passive arthus reaction (RPAR), histopathology of injection sites
Assay type: in vivo, guinea pigs
Design: key: 0 indicating no acute inflamation; 1 indication minimal acute inflammation; 2 indicating mild acute inflammation; 3 indicating moderate acute inflammation
Conditions: guinea pig, intradermal injection of peptide without antibody
Description: These exemplary peptide inhibitors (peptides 13, 7 and 27) were assayed for in vivo activity in inhibiting complement activation using the reverse passive arthus reaction (RPAR). RPAR is a model of complement-mediated damage due to activation via interaction with antigen/antibody complexes. Female guinea pigs (400 gm) were pretreated intracardially with bovine serum albumin and Evans blue dye. Ninety minutes later they received bilateral intradermal injections of peptide inhibitor or control material in the thoracolumbar region. Injection sites were excised postmortem and fixed in 10% buffered formalin for pathological evaluation. The peptides were administered to obtain an initial level of […] in the circulatory system.
The histopathological results are outlined below. The degree of inflammation was scored as follows: 0 indicating no acute inflamation; 1 indication minimal acute inflammation; 2 indicating mild acute inflammation; and 3 indicating moderate acute inflammation.

AGRSLNPNRVTFKANRPFLVFIREVPLNTIIFLGRVANP [Peptide 27]
Degree of inflammation, mean score, protease inhibitor only: 1
